ChEMBL document CHEMBL5325499, “Rational Design and Development of Selective BRD7 Bromodomain Inhibitors and Their Activity in Prostate Cancer” (J Med Chem, 2023)
The source made the active and inactive calls. The rule behind the calls is not given here.

Experiments:
[1] = target: T1, Bromodomain-containing protein 9 (Homo sapiens) (UniProt Q9H8M2); assay: Inhibition of BRD9 binding to chromatin in HEK293T cells at 10 uM incubated for 24 hrs by immunoblot analysis; type: cell-based
T1 sequence (whole entry): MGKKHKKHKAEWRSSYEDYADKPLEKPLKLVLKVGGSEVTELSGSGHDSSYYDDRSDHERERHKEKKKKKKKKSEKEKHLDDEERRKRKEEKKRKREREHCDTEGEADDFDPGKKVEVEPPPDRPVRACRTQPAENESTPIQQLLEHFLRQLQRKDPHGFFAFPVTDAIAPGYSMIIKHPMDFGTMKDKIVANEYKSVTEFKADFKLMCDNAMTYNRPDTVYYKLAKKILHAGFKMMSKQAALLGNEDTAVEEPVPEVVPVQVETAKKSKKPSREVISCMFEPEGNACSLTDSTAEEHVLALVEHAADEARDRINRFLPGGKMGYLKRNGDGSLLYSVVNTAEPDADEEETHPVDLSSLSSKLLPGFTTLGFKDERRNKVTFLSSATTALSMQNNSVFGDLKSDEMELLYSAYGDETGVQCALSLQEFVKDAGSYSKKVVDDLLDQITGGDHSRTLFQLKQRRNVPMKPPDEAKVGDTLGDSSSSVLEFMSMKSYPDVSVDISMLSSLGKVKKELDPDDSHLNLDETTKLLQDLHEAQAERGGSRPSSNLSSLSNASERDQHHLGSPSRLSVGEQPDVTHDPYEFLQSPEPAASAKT

[2] = target: T2, Bromodomain-containing protein 7 (Homo sapiens, UniProt Q9NPI1); assay: Displacement of FAM-labeled BI-FAMb from N-terminal His TEV-tagged human recombinant BRD7 bromodomain expressed in Escherichia coli BL21(DE3) by competitive fluorescence polarization assay
T2 sequence (Q9NPI1 whole entry): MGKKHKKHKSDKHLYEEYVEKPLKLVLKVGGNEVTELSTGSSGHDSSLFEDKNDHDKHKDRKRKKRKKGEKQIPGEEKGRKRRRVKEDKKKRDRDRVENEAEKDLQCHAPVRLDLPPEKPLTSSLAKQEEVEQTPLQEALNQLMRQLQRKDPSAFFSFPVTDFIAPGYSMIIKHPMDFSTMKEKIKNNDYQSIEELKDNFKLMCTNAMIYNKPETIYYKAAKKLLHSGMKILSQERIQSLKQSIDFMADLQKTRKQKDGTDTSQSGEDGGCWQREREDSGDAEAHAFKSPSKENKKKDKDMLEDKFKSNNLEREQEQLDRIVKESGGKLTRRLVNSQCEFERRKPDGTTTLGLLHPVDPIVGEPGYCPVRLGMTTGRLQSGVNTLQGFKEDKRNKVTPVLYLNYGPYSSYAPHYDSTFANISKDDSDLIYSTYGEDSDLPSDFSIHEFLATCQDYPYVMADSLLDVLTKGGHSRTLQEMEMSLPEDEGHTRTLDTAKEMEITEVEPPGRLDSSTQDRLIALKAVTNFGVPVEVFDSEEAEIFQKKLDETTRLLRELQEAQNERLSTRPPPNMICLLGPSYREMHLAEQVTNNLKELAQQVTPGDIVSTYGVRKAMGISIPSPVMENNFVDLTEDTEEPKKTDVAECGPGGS

[3] = target: T3, Bromodomain-containing protein 9 (Homo sapiens, UniProt Q9H8M2); assay: Displacement of FAM-labeled BI-FAMb from N-terminal His TEV-tagged human recombinant BRD9 bromodomain expressed in Escherichia coli BL21(DE3) by competitive fluorescence polarization assay
T3 sequence (Q9H8M2 whole entry): T1 sequence (whole entry)

[4] = target: T2, Bromodomain-containing protein 7; assay: Binding affinity to N-terminal His TEV-tagged human recombinant BRD7 bromodomain expressed in Escherichia coli BL21(DE3) by microscale thermophoresis assay
[5] = target: T4, Bromodomain-containing protein 7 (Homo sapiens) (UniProt Q9NPI1); assay: Inhibition of human partial length BRD7 bromodomain (125 to 254 residues) expressed in mammalian expression system at 2 uM by BROMOscan analysis
T4 sequence (whole entry): T2 sequence (Q9NPI1 whole entry)

[6] = target: T1, Bromodomain-containing protein 9 (Homo sapiens); assay: Binding affinity to N-terminal His TEV-tagged human recombinant BRD9 bromodomain expressed in Escherichia coli BL21(DE3) by microscale thermophoresis assay
[7] = target: T3, Bromodomain-containing protein 9; assay: Binding affinity to human partial length BRD9 bromodomain (130 to 259 residues) expressed in bacterial expression system by BROMOscan KdELECT analysis
PC-3 [8] = assay: Antiproliferative activity against AR-negative human PC-3 cells assessed as inhibition of cell growth at 5 uM incubated for 4 days by CellTiter-Glo luminescent assay; type: functional, cell-based; conditions: time 4.0 day
[9] = Selectivity ratio of IC50 for antiproliferative activity against human AR-negative PC-3 cells to IC50 for antiproliferative activity against human AR-positive LNCaP cells; type: functional
[10] = target: T2, Bromodomain-containing protein 7; assay: Binding affinity to human partial length BRD7 bromodomain (125 to 254 residues) expressed in mammalian expression system by BROMOscan KdELECT analysis
CWR22R [11] = assay: Antiproliferative activity against human 22Rv1 cells transfected with empty vector assessed as inhibition of cell growth at 2.5 uM measured after 4 days by CellTiter-Glo luminescent assay; type: functional; parameters: scale not given: the % may be the effect or the level left; conditions: time 4 day
[12] = Selectivity ratio of IC50 for antiproliferative activity against human AR-negative PC-3 cells to IC50 for antiproliferative activity against human AR-positive C-42 cells; type: functional
Homo sapiens [13] = organism: Homo sapiens; assay: Binding affinity to His TEV-tagged human recombinant BRPF1B expressed in Escherichia coli BL21(DE3) assessed as protein stabilization by measuring increase in melting temperature at 25 uM measured for 120 mins by differential scanning fluorimetry
[14] = target: T3, Bromodomain-containing protein 9; assay: Displacement of NanoBRET BRD Tracer-02 from Nanoluc-fused BRD9 bromodomain (unknown origin) expressed in HEK293T cells incubated for 2 hrs by NanoBRET assay; type: cell-based
[15] = target: T1, Bromodomain-containing protein 9 (Homo sapiens); assay: Inhibition of human partial length BRD9 bromodomain (130 to 259 residues) expressed in bacterial expression system at 2 uM by BROMOscan analysis
[16] = target: T2, Bromodomain-containing protein 7; assay: Displacement of NanoBRET BRD Tracer-02 from Nanoluc-fused BRD7 bromodomain (unknown origin) expressed in HEK293T cells incubated for 2 hrs by NanoBRET assay; type: cell-based
cells = conditions: Homo sapiens, HEK-293T, 2 h
Description: Displacement of NanoBRET BRD Tracer-02 from Nanoluc-fused BRPF1B bromodomain (unknown origin) expressed in HEK293T cells incubated for 2 hrs by NanoBRET assay

CWR22R [17] = assay: Antiproliferative activity against human 22Rv1 cells transfected with empty vector assessed as inhibition of cell growth at 5 uM measured after 4 days by CellTiter-Glo luminescent assay; type: functional; parameters: scale not given: the % may be the effect or the level left; conditions: time 4 day
Homo sapiens [18] = organism: Homo sapiens; assay: Binding affinity to His TEV-tagged human recombinant BRPF1B expressed in Escherichia coli BL21(DE3) assessed as protein stabilization by measuring increase in melting temperature at 1 uM measured for 120 mins by differential scanning fluorimetry
CWR22R [19] = assay: Antiproliferative activity against human 22Rv1 cells transfected with shBRD7-2 assessed as inhibition of cell growth at 5 uM measured after 4 days by CellTiter-Glo luminescent assay; type: functional; parameters: scale not given: the % may be the effect or the level left; conditions: time 4 day
PC-3 [20] = assay: Antiproliferative activity against AR-negative human PC-3 cells assessed as inhibition of cell growth at 1 uM measured after 4 days by CellTiter-Glo luminescent assay; type: functional, cell-based; conditions: time 4.0 day
CWR22R [21] = assay: Antiproliferative activity against human 22Rv1 cells transfected with shBRD7-1 assessed as inhibition of cell growth at 5 uM measured after 4 days by CellTiter-Glo luminescent assay; type: functional; parameters: scale not given: the % may be the effect or the level left; conditions: time 4 day
CWR22R [22] = assay: Antiproliferative activity against human 22Rv1 cells transfected with shBRD7-2 assessed as inhibition of cell growth at 2.5 uM measured after 4 days by CellTiter-Glo luminescent assay; type: functional; parameters: scale not given: the % may be the effect or the level left; conditions: time 4 day
CWR22R [23] = assay: Antiproliferative activity against human 22Rv1 cells transfected with shBRD7-1 assessed as inhibition of cell growth at 2.5 uM measured after 4 days by CellTiter-Glo luminescent assay; type: functional; parameters: scale not given: the % may be the effect or the level left; conditions: time 4 day
LNCaP = assay: Antiproliferative activity against AR-positive human LNCaP cells assessed as inhibition of cell growth at 1 uM measured after 4 days by CellTiter-Glo luminescent assay; type: functional, cell-based; conditions: time 4.0 day

| SMILES | inhibition [1] | IC50 [2] | Ki [2] | IC50 [3] | Ki [3] | Kd [4] | inhibition [5] | Activity [6] | Kd [7] | Activity (PC-3 [8]) | Ratio IC50 [9] | Kd [10] | Activity (CWR22R [11]) | Ratio IC50 [12] | IC50 ([14]; read-out: IC50) | inhibition [15] | IC50 ([16]; read-out: IC50) | IC50 (cells) | Activity (CWR22R [17]) | also measured |
| --- | --- | --- | --- | --- | --- | --- | --- | --- | --- | --- | --- | --- | --- | --- | --- | --- | --- | --- | --- | --- |
| CCn1cc(-c2cccc(C(F)(F)F)c2)c2sc(C(=N)NC3CCS(=O)(=O)CC3)cc2c1=O | Active | – | – | – | – | – | – | – | – | – | – | – | – | – | – | – | – | – | – | – |
| COc1ccc(-c2cn(C)c(=O)c3ccccc23)c(OC)n1 | – | 2900 nM | 310 nM | 1500 nM | 130 nM | – | – | – | – | – | – | – | – | – | – | – | – | – | – | – |
| Cc1cc(C)cc(-c2cn(C)c(=O)c3ccccc23)c1 | – | 8100 nM | 860 nM | 4000 nM | 340 nM | – | – | – | – | – | – | – | – | – | – | – | – | – | – | – |
| COc1ccc(-c2ccc3c(C)cc(=O)n(C)c3c2)c(C)n1 | inactive | 1600 nM | 170 nM | 2700 nM | 230 nM | 1200 nM | Active | inactive | 650 nM | Active | 3 | 290 nM | 26% | 3 | 3300 nM | inactive | 850 nM | 2800 nM | 52% | Activity (Homo sapiens [13]): Active |
| COc1ccccc1C(=O)Nc1cc2c(cc1N1CCCCC1)n(C)c(=O)n2C | – | – | – | – | – | – | – | – | – | – | – | – | – | – | – | – | – | – | – | Activity (Homo sapiens [18]): Active; IC50 ([14]; hek293t): Not Active; IC50 ([16]; hek293t): Not Active |
| COc1ccc(-c2ccc3c(C)cc(=O)n(C)c3c2)c(OC)n1 | inactive | 5400 nM | 1300 nM | > 300000 nM | > 20000 nM | 2200 nM | Active | inactive | 655 nM | Active | 3 | 340 nM | 41% | 3 | 3200 nM | inactive | 1100 nM | > 10000 nM | 73% | Activity (CWR22R [19]): 38%; Activity (PC-3 [20]): inactive; Activity (CWR22R [21]): 28%; Activity (CWR22R [22]): 22%; Activity (CWR22R [23]): 13%; Activity (LNCaP): Active |
